According to patent US7834024B2, “Compositions and methods for inhibition of the JAK pathway” (Rigel Pharmaceuticals, Inc., priority 2007, dated 2010):

system: Ramos B-Cell Line Stimulated with IL-4 (JAK-1 and JAK-3 / Stat-6, CD23); experiment: Assay for Ramos B-Cell Line Stimulated with IL-4 (CD23 upregulation, FACS); format: cell-based; conditions: Homo sapiens, Ramos, human Ramos B cells, compound 1 hour, IL-4 50 units/mL for 20-24 hours, anti-CD23-PE FACS; read-out: Example 2 (IC50)
Method in brief: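 Human Ramos B cells (5×10^4 per point, RPMI with 5% serum) pre-incubated 1 hour at 37° C with compound or DMSO, then stimulated with IL-4 at 50 units/mL final for 20-24 hours. CD23 upregulation measured by flow cytometry.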

IC50 [nM] | Molecule
117 | CC(C#N)Oc1ccc(Nc2nc(Nc3ccc(CC#N)cc3)ncc2F)cc1 (centres unmarked) [Compound I-78, N4-[4-(1-Cyanoethoxy)phenyl]-N2-(4-cyanomethylphenyl)-5-fluoro-2,4-pyrimidinediamine]
3020 | CN1CCN(C(=O)c2ccc(Nc3ncc(F)c(Nc4ccc(OCC(N)=O)cc4)n3)cc2)CC1 [Compound I-36, N4-(4-Aminocarbonylmethoxyphenyl)-5-fluoro-N2-[4-((4-methylpiperazin-1-yl)carbonyl)phenyl]-2,4-pyrimidinediamine]
65.1 | N#CCOc1ccc(Nc2nc(Nc3cccc(C(N)=O)c3)ncc2F)cc1 [Compound I-28, N2-(3-Aminocarbonylphenyl)-N4-(4-cyanomethoxyphenyl)-5-fluoro-2,4-pyrimidinediamine]
2140 | Cc1noc(CCc2ccc(Nc3nc(Nc4ccc(CCC#N)cc4)ncc3F)cc2)n1 [Compound I-121, 5-Fluoro-N4-[4-(2-(3-methyl-1,2,4-oxadiazol-5-yl)ethyl)phenyl]-N2-[4-(2-cyanoethyl)phenyl]-2,4-pyrimidinediamine]
91.5 | Cc1cc(Nc2nc(Nc3ccc(C(N)=O)cc3)ncc2F)cc(C)c1OCC#N [Compound I-90, N2-(4-Aminocarbonylphenyl)-N4-(4-cyanomethoxy-3,5-dimethylphenyl)-5-fluoro-2,4-pyrimidinediamine]
73.4 | Cc1cnc(Nc2cccc(C#N)c2)nc1Nc1ccc2c(c1)NC(=O)CS2 [II-9, N2-(3-Cyanophenyl)-5-methyl-N4-(3-oxo-2H,4H-benzo[1,4]thiazin-6-yl)-2,4-pyrimidinediamine]
886 | N#Cc1cccc(Nc2ncc(F)c(Nc3ccc(OCC(N)=O)cc3)n2)c1 [Compound I-22, N4-(4-Aminocarbonylmethoxyphenyl)-N2-(3-cyanophenyl)-5-fluoro-2,4-pyrimidinediamine]
1830 | CC(C)OC(=O)COc1ccc(Nc2nc(Nc3ccc(C(=O)N4CCN(C)CC4)cc3)ncc2F)cc1 [Compound I-26, 5-Fluoro-N4-[4-((1-methylethoxy)carbonylmethoxy)phenyl]-N2-[4-((4-methylpiperazin-1-yl)carbonyl)phenyl]-2,4-pyrimidinediamine]
223 | C#CCOc1ccc(Nc2nc(Nc3ccc(C(N)=S)cc3)ncc2F)cc1 [Compound I-7, N2-(4-Aminocarbonothioylphenyl)-5-fluoro-N4-[4-(2-propynyloxy)phenyl]-2,4-pyrimidinediamine]
899 | Cc1cnc(Nc2cccc(C(N)=O)c2)nc1Nc1ccc2c(c1)CCC(=O)N2C [II-28, N2-(3-Aminocarbonylphenyl)-5-methyl-N4-(1-methyl-2-oxo-1,2,3,4-tetrahydroquinolin-6-yl)-2,4-pyrimidinediamine]
195 | Cc1cnc(Nc2cnc3c(c2)OCC(=O)N3)nc1Nc1cnc2c(c1)OCC(=O)N2 [VII-3, N4,N2-Bis(3-oxo[4H]-5-pyrido[1,4]oxazin-7-yl)-5-methyl-2,4-pyrimidinediamine]
2240 | CN1CCN(C(=O)c2cccc(Nc3ncc(F)c(Nc4ccc(OCC(N)=O)cc4)n3)c2)CC1 [Compound I-37, N4-(4-Aminocarbonylmethoxyphenyl)-5-fluoro-N2-[3-((4-methylpiperazin-1-yl)carbonyl)phenyl]-2,4-pyrimidinediamine]
31600 | CCc1cc(Nc2ncc(F)c(Nc3cccc(OCC#N)c3)n2)cc(C#N)c1Cl [Compound I-105, N2-(4-Chloro-3-cyano-5-ethylphenyl)-N4-(3-cyanomethoxyphenyl)-5-fluoro-2,4-pyrimidinediamine]
1060 | COC(=O)c1ccc(Nc2nc(Nc3cccc(C(N)=O)c3)ncc2F)s1 [Compound I-123, N2-(3-Aminocarbonylphenyl)-5-fluoro-N4-(5-methoxycarbonylthiophen-2-yl)-2,4-pyrimidinediamine]
91.4 | Cc1nc(COc2ccc(Nc3nc(Nc4ccc(C(N)=O)cc4)ncc3F)cc2)no1 [Compound I-56, N2-(4-Aminocarbonylphenyl)-5-fluoro-N4-[4-((5-methyl-1,2,4-oxadiazol-3-yl)methoxy)phenyl]-2,4-pyrimidinediamine]
62.9 | CN1CCOc2cc(Nc3nc(Nc4ccc(C(N)=O)cc4)ncc3F)ccc21 [II-3, N2-(4-Aminocarbonylphenyl)-N4-(3,4-dihydro-4-methyl-2H-benzo[1,4]oxazin-7-yl)-5-fluoro-2,4-pyrimidinediamine]
184 | NC(=O)COc1cccc(Nc2nc(Nc3ccc(C(N)=O)cc3)ncc2F)c1 [Compound I-32, N4-(3-Aminocarbonylmethoxyphenyl)-N2-(4-aminocarbonylphenyl)-5-fluoro-2,4-pyrimidinediamine]
391 | CNC(=O)COc1cc(Nc2ncc(F)c(Nc3ccc4c(c3)NC(=O)C(F)(F)O4)n2)ccc1OC [II-34, N4-(2,2-Difluoro-3-oxo-4H-benzo[1,4]oxazin-6-yl)-5-fluoro-N2-[4-methoxy-3-(N-methylaminocarbonylmethoxy)phenyl]-2,4-pyrimidinediamine]
247 | Cc1nc(COc2ccc(Nc3nc(Nc4ccc(CC#N)cc4)ncc3F)cc2)no1 [Compound I-77, N2-(4-Cyanomethylphenyl)-5-fluoro-N4-[4-((5-methyl-1,2,4-oxadiazol-3-yl)methoxy)phenyl]-2,4-pyrimidinediamine]
103000 | N#CCc1ccc(Nc2ncc(F)c(Nc3ccc(F)c(C#N)c3)n2)cc1 [Compound I-118, N4-(3-Cyano-4-fluorophenyl)-N2-(4-cyanomethylphenyl)-5-fluoro-2,4-pyrimidinediamine]
71 | N#CCOc1ccc(Nc2nc(Nc3cccc(C#N)c3)ncc2F)cc1 [Compound I-30, N4-(4-Cyanomethoxyphenyl)-N2-(3-cyanophenyl)-5-fluoro-2,4-pyrimidinediamine]
357 | CNC(=O)c1cc(Nc2ncc(F)c(Nc3cccc(OCC(N)=O)c3)n2)ccc1N1CCN(C)CC1 [Compound I-51, N4-(3-Aminocarbonylmethoxyphenyl)-5-fluoro-N2-[3-methylaminocarbonyl-4-(4-methylpiperazin-1-yl)phenyl]-2,4-pyrimidinediamine]

same assay, conditions: human Ramos B cells, compound 1 hour, IL-4 50 units/mL for 20-24 hours, anti-CD23-PE FACS; read-out: Example 2 (IC50)

IC50 [nM] | Molecule
36.2 | CNC(=O)COc1cccc(Nc2ncc(F)c(Nc3ccc4c(c3)N(CC#N)C(=O)CS4)n2)c1 [II-12, N4-(4-Cyanomethyl-3-oxo-2H-benzo[1,4]thiazin-6-yl)-5-fluoro-N2-[3-(N-methylaminocarbonylmethyleneoxy)phenyl]-2,4-pyrimidinediamine]
213 | N2-(3-Cyanomethoxy-4,5-dimethoxyphenyl)-N4-(2,2-dimethyl-3-oxo-4H-5-pyrido[1,4]oxazin-6-yl)-5-fluoro-2,4-pyrimidinediamine [II-16]
1010 | N2-[1-(2-(N-Morpholinyl)ethylaminocarbonyl)-1H-indol-6-yl]-N4-[4-(2-propynyloxy)phenyl]-2,4-pyrimidinediamine [VI-2]
80.9 | CNC(=O)COc1cccc(Nc2ncc(Br)c(Nc3ccc4c(c3)OCCO4)n2)c1 [II-1, 5-Bromo-N4-(3,4-ethylenedioxyphenyl)-N2-[3-(N-methylaminocarbonylmethyleneoxy)phenyl]-2,4-pyrimidinediamine]
110 | CNC(=O)COc1cc(Nc2ncc(F)c(Nc3ccc4c(c3)NC(=O)CO4)n2)cc(OC)c1OC [II-22, N2-[4,5-Dimethoxy-3-(N-methylaminocarbonylmethyleneoxy)phenyl]-5-fluoro-N4-(3-oxo-2H,4H-benzo[1,4]oxazin-6-yl)-2,4-pyrimidinediamine]
149 | 5-Fluoro-N2-[2-(2-(N-morpholinyl)ethylaminocarbonyl)benzofuran-5-yl]-N4-[4-(2-propynyloxy)phenyl]-2,4-pyrimidinediamine [III-3]
1420 | CN1CCN(C(=O)c2ccc(Nc3ncc(F)c(Nc4cccc(OCC#N)c4)n3)cc2)CC1 [Compound I-53, N4-(3-Cyanomethoxyphenyl)-5-fluoro-N2-[4-((4-methylpiperazin-1-yl)carbonyl)phenyl]-2,4-pyrimidinediamine]
1010 | N2-[2,3-Dihydro-1-(2-(N-morpholinyl)ethylaminocarbonyl)-1H-indol-6-yl]-N4-[4-(2-propynyloxy)phenyl]-2,4-pyrimidinediamine [VI-1]
95 | CNC(=O)COc1cc(Nc2ncc(F)c(Nc3ccc4c(c3)NC(=O)CS4)n2)cc(OC)c1OC [II-19, N2-[4,5-Dimethoxy-3-(N-methylaminocarbonylmethyleneoxy)phenyl]-5-Fluoro-N4-(3-oxo-2H,4H-benzo[1,4]thiazin-6-yl)-2,4-pyrimidinediamine]
229 | Cc1cnc(Nc2cccc(C(N)=O)c2)nc1Nc1ccc2c(n1)N(C)C(=O)C(C)(C)O2 [II-43, N2-(3-Aminocarbonylphenyl)-5-methyl-N4-(2,2,4-trimethyl-3-oxo-5-pyrido[1,4]oxazin-6-yl)-2,4-pyrimidinediamine]

Molecule | IC50 [nM]
Cc1noc(COc2ccc(N(C)c3nc(Nc4cccc(C#N)c4)ncc3F)cc2)n1 [Compound I-17, N2-(3-Cyanophenyl)-5-fluoro-N4-methyl-N4-[4-((3-methyl-1,2,4-oxadiazol-5-yl)methyleneoxy)phenyl]-2,4-pyrimidinediamine] | 1780
Cc1noc(COc2ccc(N(C)c3nc(Nc4ccc(C(N)=O)cc4)ncc3F)cc2)n1 [Compound I-15, N2-(4-Aminocarbonylphenyl)-5-fluoro-N4-methyl-N4-[4-((3-methyl-1,2,4-oxadiazol-5-yl)methyleneoxy)phenyl]-2,4-pyrimidinediamine] | 693
CCn1nccc1NC(=O)c1ccc(Nc2ncc(F)c(Nc3ccc(OC)c(Cl)c3)n2)cc1 [Compound I-3, N4-(3-Chloro-4-methoxyphenyl)-N2-[4-((I-ethyl-1H-pyrazol-5-yl)aminocarbonyl)phenyl]-5-fluoro-2,4-pyrimidinediamine] | 119
